Test results published in ChEMBL document CHEMBL3637782, “GSK Tres Cantos Follow-up TB Screening Data” (2016).

Tested on: Mycobacterium tuberculosis variant bovis
Assay: GSK_TB: Effect of compound calculated as % inhibition at single shot or pIC50 ( pIC50 ATP assay M.bovis)
Type: functional, organism-based
Settings: BCG / Pasteur

**Q.** O=C(NCc1ccco1)N1CCN(Cc2ccc3c(c2)CCO3)CC1 was tested. Which IC50 did it give?
**A.** 2.51 µM

**Q.** COc1ccc2nccc(NC(=O)C3CCN(CCc4ccc(Cl)cc4)CC3)c2n1 was tested. Which IC50 did it give?
**A.** 5.01 µM

**Q.** For O=C(NCc1ccoc1)N1CCN(Cc2ccc3c(c2)OCO3)CC1, which IC50 is on record?
**A.** 1.26 µM

**Q.** CCCC/C=C/c1cc2ccncc2cc1OC1CCNCC1 was tested. Which IC50 did it give?
**A.** 2.51 µM

**Q.** O=C(NCc1ccco1)N1CCN(Cc2ccc(Cl)s2)CC1 was tested. Which IC50 did it give?
**A.** 1.26 µM

**Q.** For Nc1ccccc1Nc1ccc(Cl)cc1, which IC50 is on record?
**A.** 0.1 µM

**Q.** How did the IC50 turn out when NCC(c1cccs1)S(=O)(=O)c1ccccc1 (stereo not given) was run?
**A.** 5.01 µM

**Q.** For NS(=O)(=O)c1ccc(Nc2cnc3ccccc3n2)cc1, which IC50 is on record?
**A.** 6.31 µM

**Q.** For O=C(NCc1ccco1)N1CCN(Cc2cccs2)CC1, which IC50 is on record?
**A.** 7.94 µM

**Q.** Which IC50 does the source give for O=S(=O)(NCc1ccccc1)c1ccc(-c2cc3ccncc3cc2OC2CCNCC2)s1 here?
**A.** 2 µM

**Q.** CNc1snc(C)c1C(=O)NCCOc1ccc(OC)cc1 was tested. Which IC50 did it give?
**A.** 3.16 µM

**Q.** Which IC50 does the source give for COc1ccc(-c2nnc3sc(Cc4csc(C)n4)nn23)cc1 here?
**A.** 5.01 µM

**Q.** With CNc1nc(SC)nnc1-c1cccc(Cl)c1Cl as the molecule, how does the IC50 read?
**A.** 12.6 µM

**Q.** For Nc1ccc(C(O)CNCCc2ccccc2)cc1O (stereo not given), which IC50 is on record?
**A.** 2 µM

**Q.** With O=C(Nc1nc2c(s1)CCCc1cccnc1-2)c1ccccc1C(F)(F)F as the molecule, how does the IC50 read?
**A.** 2.51 µM

**Q.** For NC(=O)c1ccc(CN(C2CC2)S(=O)(=O)c2ccccc2F)cc1, which IC50 is on record?
**A.** 12.6 µM

**Q.** With NC(=O)c1cc2ccc(CC(=O)c3cccs3)cc2s1 as the molecule, how does the IC50 read?
**A.** 15.8 µM

**Q.** How did the IC50 turn out when CN(Cc1ccc(Cl)cc1)C(=O)CCc1nc2ccccc2oc1=O was run?
**A.** 3.98 µM

**Q.** How did the IC50 turn out when Clc1nnc(N2CCCC2)c2ccccc12 was run?
**A.** 3.16 µM

**Q.** Which IC50 does the source give for Cc1nc(Nc2cnn(Cc3ccccc3F)c2)c2nn(C)c(C)c2n1 here?
**A.** 2.51 µM

**Q.** For O=[N+]([O-])c1cnc(-c2nc3ccccc3[nH]2)s1, which IC50 is on record?
**A.** 3.98 µM

**Q.** CCOCn1ccc(NS(=O)(=O)c2ccc(N)cc2)nc1=O was tested. Which IC50 did it give?
**A.** 3.16 µM

**Q.** For FC(F)(F)Oc1ccc(-c2cc3ccncc3cc2OC2CCNCC2)cc1, which IC50 is on record?
**A.** 3.16 µM

**Q.** How did the IC50 turn out when CCCCNCC1COc2ccc(OC)cc2C1=O (stereo not given) was run?
**A.** 6.31 µM

**Q.** For COc1ccc(Nc2nc(N[C@@H]3CCNC3)nc3cc[nH]c(=O)c23)cc1NC(=O)c1ccccc1, which IC50 is on record?
**A.** 5.01 µM

**Q.** For N#Cc1ncn(-c2ccc3nnc(C(F)(F)F)n3n2)n1, which IC50 is on record?
**A.** 7.94 µM

**Q.** Which IC50 does the source give for Cn1cc(CCNC(=O)Nc2ccc(N3CCCCC3)nc2)cn1 here?
**A.** 20 µM

**Q.** c1ccc(-c2ncc(-c3ccc(OCCCn4ccnc4)cc3)s2)cc1 was tested. Which IC50 did it give?
**A.** 7.94 µM

**Q.** With CC(C)N(C(=O)CNc1ccccc1Nc1ccccc1)c1ccccc1 as the molecule, how does the IC50 read?
**A.** 6.31 µM

**Q.** How did the IC50 turn out when COc1ccc(Nc2ncccc2N)cc1 was run?
**A.** 0.794 µM

**Q.** How did the IC50 turn out when Fc1ccc(Cc2nnc(-c3ccnc(Nc4ccc(OCCN5CCOCC5)cc4)n3)[nH]2)cc1 was run?
**A.** 7.94 µM

**Q.** Which IC50 does the source give for CC1CC1c1ccc(CN2CCc3nc(Nc4ccccc4)sc3CC2)o1 (stereo not given) here?
**A.** 6.31 µM

**Q.** With FC(F)(F)c1nnc2ccc(Sc3nnc(-c4ccco4)o3)nn12 as the molecule, how does the IC50 read?
**A.** 3.16 µM

**Q.** Which IC50 does the source give for Cc1ccc2oc(SCC(=O)Nc3nccs3)nc2n1 here?
**A.** 6.31 µM

**Q.** COC(=O)c1ccc(Oc2ccc(-c3csc(C)n3)cc2F)nn1 was tested. Which IC50 did it give?
**A.** 20 µM

**Q.** CC(C)c1noc(N2CCC([C@H](C)Oc3cnc(-c4ccc(S(C)(=O)=O)c(F)c4)cn3)CC2)n1 was tested. Which IC50 did it give?
**A.** 6.31 µM

**Q.** How did the IC50 turn out when O=C(NCCO)c1c(O)c2ncc(Cc3ccc(F)cc3C(F)(F)F)cc2[nH]c1=O was run?
**A.** 5.01 µM

**Q.** COc1ccc(CCNC(=O)C2(n3cnnn3)CCCCC2)cc1 was tested. Which IC50 did it give?
**A.** 3.98 µM

**Q.** For O=C(O)CCc1nc2ccccc2oc1=O, which IC50 is on record?
**A.** 7.94 µM

**Q.** O=C(Nc1nc(-c2ccccn2)cs1)N1CCC(Cc2ccc(F)cc2)CC1 was tested. Which IC50 did it give?
**A.** 3.98 µM

**Q.** CCCCc1ccc(C(=O)Nc2nnc(S(=O)(=O)CCCC)s2)nc1 was tested. Which IC50 did it give?
**A.** 7.94 µM

**Q.** How did the IC50 turn out when CC(C)Oc1ccc(-c2nnc(-c3ccc4c(c3)CCNCC4)s2)cc1Cl was run?
**A.** 2.51 µM

**Q.** Which IC50 does the source give for N#Cc1cccc(-c2ccc(NC[C@H]3CC[C@]4(CC3)CN(c3cccnn3)C(=O)O4)nc2)c1 here?
**A.** 25.1 µM

**Q.** For N#Cc1cc(C(F)(F)F)c2nc(C(=O)NCc3cccs3)c(Cl)n2c1, which IC50 is on record?
**A.** 6.31 µM

**Q.** For CCOc1cc2ccccc2cc1C(=O)NC, which IC50 is on record?
**A.** 6.31 µM

**Q.** How did the IC50 turn out when Cc1ccc2c(c1)c(=O)cc(C(F)(F)F)n2CCNC(=O)c1ccccn1 was run?
**A.** 6.31 µM

**Q.** For Fc1cccc(Oc2cc(C3CCCNC3)nc(-c3ccncc3)n2)c1 (stereo not given), which IC50 is on record?
**A.** 12.6 µM

**Q.** With Cc1c(C(=O)NCCOc2ccccc2)[nH]c2c1C(=O)CCC2 as the molecule, how does the IC50 read?
**A.** 7.94 µM

**Q.** For COc1ccc(CN2CCN(C(=O)/C=C/c3csc(C)n3)CC2)cc1, which IC50 is on record?
**A.** 5.01 µM

**Q.** Which IC50 does the source give for Nc1ccc(S(=O)(=O)Nc2ccnn2-c2ccccc2)cc1 [SULFAPHENAZOLE] here?
**A.** 10 µM
